Patent US10494402B2, “Peptides that stimulate subcutaneous adipogenesis” (The Regents of the University of California, priority 2012, dated 2019)

Columns and labels:
[1] = tested on: rat mesenchymal stem cells; experiment: Adipogenesis Assay 1 (IBMX/dexamethasone priming, peptide replaces insulin; Oil Red O or BODIPY); type: cell-based; conditions: for adipogenic activity, Oil Red O, fold change relative to negative control / Fold adipogenic induction vs. negative control / Specific activity (activity/1000 daltons): Assay 1; for adipogenic activity, Oil Red O, fold change relative to negative control: 0.5, 5, and 50 μg/ml over 3 weeks; for adipogenic activity of truncation fragments: truncation experiments, assays 1 and 2, FIGS. 7, 8, 9
Method: Reagents: (1) 3-isobutyl-1-methylxanthine (IBMX) solution: 0.5M in DMSO; (2) Insulin solution: 10 mg/mL recombinant human insulin; (3) Dexamethasone solution in 10 mM in ethanol; (4) Oil Red O (0.36% in 60% isopropanol) or BODIPY dye (BODIPY 493/503 (4,4-difluoro-1,3,5,7-tetramethyl-4-bora-3a,4a-diaza-s-indacene-8-propionic acid, succinimidyl ester) from Invitrogen at 4-10 μM).
Adipogenesis Initiation Media: mesenchymal stem cell expansion media/0.5 mM IBMX/1 μM dexamethasone. Mesenchymal stem cell expansion media is commercially available from Millipore. The IBMX Solution was diluted 1:1000 and the Dexamethasone Solution was diluted 1:10,000 in expansion media containing antibiotics and antimycotics. The prepared media was stored at 4° C.
Adipogenesis Progression Media for positive control: mesenchymal stem cell expansion media/10 μg/mL insulin. The Insulin Solution was diluted 1:1000 in the expansion media and stored at 4° C.
Experimental Adipogenesis Progression Media: mesenchymal stem cell expansion media/1-100 μg/mL RHAMM antagonist peptides.
Adipogenesis Maintenance Media: mesenchymal stem cell expansion media containing antibiotics and antimycotics.
Negative Control Media: DMEM/10% normal calf serum.
Pre-adipocyte stem cells including bone marrow mesenchymal stem cells and fibroblasts including reticular and papillary dermal fibroblasts were propagated using standard tissue culture methods. Cells were trypsinized to remove the cells from the substratum. The trypsin was neutralized and cells were counted using a hemocytometer. Cells were resuspended at 30,000 cells/mL in expansion media. […] of cell suspension was plated per well of 24-well plate, with several wells left empty for blank well staining.
Cells were incubated for 1-2 days until they reached confluency. Approximately 1.8 mL of media was removed from each well and replaced with 2 mL Adipogenesis Initiation Media. For negative control wells, expansion media only was used at this step and for subsequent media changes. For all media changes, media was replaced as gently as possible to avoid disturbing the monolayer.
Cells were incubated for 48 hours at 37° C., 5% CO2. 2 mL media was removed from each well, and replaced with 2 mL either positive control or experimental Adipogenesis Progression Media per well. Cells were again incubated for 48 hours at 37° C., 5% CO2. 2 mL of media was removed from each well and replaced with 2 mL Adipogenesis Maintenance Media per well. In addition, media was added to the empty wells reserved for blank well staining Cells were incubated for at least 48 hours at 37° C., 5% CO2. Media was replaced every 48-72 hours. Accumulation of intracellular lipid droplets continued for at least 5 days.
For quantification of Oil Red O staining, media was removed and cells were washed twice with PBS, using care to gently add the PBS. 0.5 mL Oil Red O solution was added per well of 24-well plate, including to the wells lacking cells, but containing media. Cells were incubated for 15 minutes at room temperature. The staining solution was then removed and wells were washed three times with 1 mL of phosphate buffered saline (PBS). In some experiments, following removal of the last wash, stained plates were scanned or photographed.
Adipogenesis was quantified using a spectrophotometer or fluorometer. 0.25 mL Dye Extraction Solution (isopropyl alcohol) was added per well, and the plate was set on an orbital shaker or platform rocker for 15-30 minutes. Extracted dye was transferred into a cuvette and absorbance was read in a spectrophotometer at visible range for oil red 0 or transferred to a 96-well plate and quantified in a plate reader.
For quantification of BODIPY dye uptake, media was removed and cells were washed twice with PBS, using care to gently add the PBS. Cells were then fixed in 3% paraformaldehyde, washed in PBS then incubated for 1 hour in the dark with the BODIPY solution, prepared in PBS. […]

[2] = tested on: rat mesenchymal stem cells; experiment: Adipogenesis Assay 2 (dexamethasone/insulin/indomethacin induction, then peptide; Oil Red O or BODIPY); type: cell-based; conditions: for adipogenic activity of pentamers / adipogenic activity relative to KSEVSK hexamer: FIG. 35, groups labelled A2-, doses 1, 5, 25 μg, absorbance at 520 nm; for Fold adipogenic induction vs. negative control / Specific activity (activity/1000 daltons) / adipogenic activity, Oil Red O, fold change relative to negative control: Assay 2; for adipogenic activity, Oil Red O, fold change relative to negative control: 0.5, 5, and 50 μg/ml over 3 weeks
Method: Reagents: The dexamethasone, insulin, and Oil Red O solutions were the same as described above for assay 1. Indomethacin Solution contained 10 mM indomethacin in methanol. The BODIPY 493/503 dye was used at a concentration of 4 μM.
Adipogenesis Maintenance Media was prepared as described above.
Adipogenesis Induction Media: To prepare 501 mL of Adipogenesis Induction Media, 50 μL of the 10 mM stock solution of dexamethasone, 500 μL of the 10 mg/ml stock solution of insulin, 5 ml of a 10 mM stock solution of indomethacin, and 5 mL of a 100× stock solution of penicillin and streptomycin were added to 490 mL of mesenchymal stem cell expansion media.
Pre-adipocyte stem cells, bone marrow mesenchymal stem cells and fibroblasts such as dermal reticular and papillary fibroblasts were propagated using standard tissue culture methods. Cells were trypsinized to remove cells from the substratum, the trypsin was neutralized, and cells were counted using a hemocytometer. Cells were resuspended at 60,000 cells/ml in low glucose DMEM containing 10% calf serum. 1 mL of cell suspension per well was plated in a 24-well plate, with several wells left empty for blank well staining.
Cells were incubated overnight and had reached confluency at this point. Approximately 1.8 ml of media was removed from each well and replaced with 2 ml Adipogenesis Induction Media. For negative control wells, expansion medium only was used at this step and for subsequent media changes. For all media changes, media was replaced as gently as possible to avoid disturbing the monolayer.
Media was removed and replaced with 2 ml of maintenance medium containing either RHAMM antagonist peptides (experimental group) or insulin (concentration as in the induction medium used as positive control). […]
Media was removed and BODIPY or Oil Red O staining was performed as described above for assay 1.
As described above in Example 1, two different adipogenesis assays were used herein to assess the adipogenic effects of the peptides in rat mesenchymal stem cells. Assay 1 is an assay that is typically used to promote transdifferentiation of fibroblasts into adipocytes, whereas Assay 2 is typically used to promote differentiation of multi-potential mesenchymal progenitor cells into adipocytes. Immortalized rat bone marrow mesenchymal stem cells were used for both assays. These cells contain cells of different lineages, including fibroblasts, pre-adipocytes, pre-chondrocytes and pre-osteoblasts. Thus, Assay 1 was used to promote transdifferentiation of the fibroblast lineages into adipocytes and Assay 2 was used to promote differentiation of the pre-adipocytes into adipocytes.
As described in Example 1 above, the priming stimulus for Assay 1 includes IBMX (3-isobutyl-1-methylxanthine) and dexamethasone, and then insulin as the final adipogenic stimulus. The priming stimulus for assay 2 includes IBMX, dexamethasone and indomethacin, and then insulin as the final adipogenic stimulus.

2D human Pre-adipocytes = experiment: Adipogenic potential ranking in 2D tissue culture, human pre-adipocytes; type: cell-based; conditions: scale of 0-5, 5 highest
Method: (§1) Examples of the adipogenic effects of RHAMM antagonists (peptide B (SEQ ID NO: 2), peptide P15-1 (SEQ ID NO. 1), and the antibody to peptide B) are summarized in Table 1. Peptide P15-1, peptide B, and a RHAMM antibody were assayed for their effects on pre-adipocyte stem cells in culture and when injected into the dermis of aged rats. Reagents were ranked on a scale of 0-5 with 5 representing the highest possible score and a completely filled in Harvey ball. “2D” refers to two-dimensional tissue culture.

[3] = tested on: 2D rat Pre-adipocytes (rat mesenchymal stem cells); experiment: Adipogenic potential ranking in 2D tissue culture, rat pre-adipocytes; type: cell-based; conditions: ranked on a scale of 0-5 with 5 representing the highest possible score
Method: as §1

Rat skin = experiment: Rat dermal skin model of adipogenesis (injection into dermis); type: in vivo; conditions: injected into the dermis of aged rats; scale of 0-5, 5 highest
Method: as §1
In FIGS. 5A and 5B, data are shown as a ratio of the area (“surface area”) of fat pads expressed as a ratio of experimental/control values.
The 6-mer (KSEVSK; SEQ ID NO: 3) was tested for adipogenic effect in rat skin in vivo. The results of this testing are shown in the photographs in FIG. 10.

[4] = tested on: mesenchymal stem cells or papillary fibroblasts; experiment: Adipogenesis by RHAMM antagonists in tissue culture and in vivo (summary statements)
Source text: We hypothesized that the fragment and the antibody were blocking RHAMM function by competitive inhibition and by direct binding/blocking of RHAMM, respectively. Using truncation analyses, the size of the peptide was further reduced to 32 amino acids ([…] (SEQ ID NO: 92)) and it was shown that adipogenic activity is localized to a 15 amino acid peptide (KLKDENSQLKSEVSK (SEQ ID NO: 2); “peptide B” or “B-1” herein) shown in FIG. 2. This peptide was chemically synthesized to use as a competitive blocker, and antibodies were prepared against this sequence tagged with keyhold lymphocyte hemacyanin (KLH) to directly bind/block RHAMM function.
The RHAMM sequence that contains adipogenic activity also contains the hyaluronan binding region of this protein.
All of these reagents can replace insulin in their ability to promote adipogenesis in mesenchymal stem cells or papillary fibroblasts.

mesenchymal stem cell = experiment: Adipogenesis with commercially available mesenchymal stem cell kit; type: cell-based
Method: Ablation of RHAMM expression promotes adipogenesis (Tolg et al., 2006, J Cell Biol). A RHAMM carboxy-terminal sequence [^AA681LDAFEAEKQA LLNEHGATQEQLNKIRDSYAQLLGHQNLKQKIKHVVKLKDENSQLKSEVSKLRSQLVKRKQNELRLQGELDKALGIRHFDPSKAFCHASKENFTPLKEGNPNCC^aa794 (SEQ ID NO: 91)] was produced as a recombinant protein, and antibodies were prepared to this protein fragment.

Molecule: ASEVSA
- adipogenic activity, Oil Red O, fold change relative to negative control [1]: significantly increased adipogenic activity as compared to both the negative control and the KSEVSK 6-mer

Molecule: KLKDENS [fragment corresponding to one half of peptide B]
- adipogenic activity of truncation fragments [1]: Only the SQLKSEVSK (SEQ ID NO: 44) fragment was found to be adipogenic

Molecule: KSEVS
- adipogenic activity of pentamers [2]: low level of adipogenic activity
- adipogenic activity relative to KSEVSK hexamer [2]: much less active than the KSEVSK (SEQ ID NO: 3) hexamer

Molecule: LKSEVSK
- Fold adipogenic induction vs. negative control [2]: 3
- Specific activity (activity/1000 daltons) [2]: 3.39 activity/1000 daltons
- Fold adipogenic induction vs. negative control [1]: 2
- Specific activity (activity/1000 daltons) [1]: 2.26 activity/1000 daltons
- adipogenic activity of truncation fragments [1]: also found to be adipogenic

Molecule: LSELEK
- adipogenic activity, Oil Red O, fold change relative to negative control [2]: increased adipogenesis

Molecule: SEVSK
- adipogenic activity of pentamers [2]: low level of adipogenic activity
- adipogenic activity relative to KSEVSK hexamer [2]: much less active than the KSEVSK (SEQ ID NO: 3) hexamer

Molecule: SIMMSR
- adipogenic activity, Oil Red O, fold change relative to negative control [2]: weakly adipogenic
- adipogenic activity, Oil Red O, fold change relative to negative control [1]: weakly adipogenic

Molecule: SQLKSEVSK
- Fold adipogenic induction vs. negative control [2]: 3.0
- Specific activity (activity/1000 daltons) [2]: 2.64 activity/1000 daltons
- Fold adipogenic induction vs. negative control [1]: 2.4
- Specific activity (activity/1000 daltons) [1]: 2.11 activity/1000 daltons
- adipogenic activity of truncation fragments [1]: found to be adipogenic

Molecule: STMMRSH
- adipogenic activity, Oil Red O, fold change relative to negative control [2]: active at the 0.5 μg/ml concentration
- adipogenic activity, Oil Red O, fold change relative to negative control [1]: significantly greater adipogenic activity than the negative control

Molecule: STMMSRSHK
- adipogenic activity of truncation fragments [1]: has adipogenic activity

Molecule: STMMSRSHKTRSHHV [peptide P15-1, reference compound]
- adipogenic potential, 2D human Pre-adipocytes (2D human Pre-adipocytes): 2
- adipogenic potential, 2D rat Pre-adipocytes (rat mesenchymal stem cells) [3]: 2
- adipogenic potential, In vivo Rat skin (Rat skin): 2
- adipogenesis in tissue culture and in vivo [4]: promotes adipogenesis in tissue culture and in vivo

Molecule: STRMSR
- adipogenic activity, Oil Red O, fold change relative to negative control [2]: weakly adipogenic
- adipogenic activity, Oil Red O, fold change relative to negative control [1]: weakly adipogenic

Molecule: STTMSR
- adipogenic activity, Oil Red O, fold change relative to negative control [2]: weakly adipogenic
- adipogenic activity, Oil Red O, fold change relative to negative control [1]: weakly adipogenic

B1: SEQ ID NO: 91: RHAMM carboxy-terminal sequence (aa681-aa794) produced as a recombinant protein (protein)
chain: LDAFEAEKQALLNEHGATQEQLNKIRDSYAQLLGHQNLKQKIKHVVKLKDENSQLKSEVSKLRSQLVKRKQNELRLQGELDKALGIRHFDPSKAFCHASKENFTPLKEGNPNCC
- adipogenesis (mesenchymal stem cell): promoted adipogenesis
